Data reported in PMC8356907 (Current analytical chemistry, 2021).
Each block holds one molecule with its values, some of them ahead of it. Square brackets hold non-standard residues; d marks the D form.

Key:
[1] = molecular target: human integrin αvβ3 purified protein (Homo sapiens, UniProt P05106+P06756); assay: Solid-phase RGD receptor-binding assay
[2] = test system: A549 cells; assay: Live cell NIR fluorescence microscopy; assay type: cell-based, human; conditions: 100 μM inhibitor, paclitaxel-treated A549 cells, 4 h
[3] = molecular target: T1, recombinant human caspase 3 (Homo sapiens, UniProt P42574); conditions: cited from earlier work; for kcat: standard fluorogenic substrates; for Km: standard substrates
T1 sequence (P42574 29-175 limits assumed): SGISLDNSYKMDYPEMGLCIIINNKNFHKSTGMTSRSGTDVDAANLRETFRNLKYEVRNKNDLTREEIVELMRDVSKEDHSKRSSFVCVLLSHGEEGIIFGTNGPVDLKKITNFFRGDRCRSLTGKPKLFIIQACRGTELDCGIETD
T1 sequence (P42574 176-277 limits assumed): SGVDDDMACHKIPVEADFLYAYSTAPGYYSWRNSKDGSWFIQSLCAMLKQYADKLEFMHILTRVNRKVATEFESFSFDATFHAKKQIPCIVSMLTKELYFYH

[4] = molecular target: human integrin αvβ3 purified protein (human, UniProt P06756 31-1048; P05106 27-788); assay: radioligand binding
[5] = molecular target: T2, human integrin αvβ3 purified protein (human), P06756; assay: radioligand binding; conditions: remark: other sources report otherwise
T2 chain 1: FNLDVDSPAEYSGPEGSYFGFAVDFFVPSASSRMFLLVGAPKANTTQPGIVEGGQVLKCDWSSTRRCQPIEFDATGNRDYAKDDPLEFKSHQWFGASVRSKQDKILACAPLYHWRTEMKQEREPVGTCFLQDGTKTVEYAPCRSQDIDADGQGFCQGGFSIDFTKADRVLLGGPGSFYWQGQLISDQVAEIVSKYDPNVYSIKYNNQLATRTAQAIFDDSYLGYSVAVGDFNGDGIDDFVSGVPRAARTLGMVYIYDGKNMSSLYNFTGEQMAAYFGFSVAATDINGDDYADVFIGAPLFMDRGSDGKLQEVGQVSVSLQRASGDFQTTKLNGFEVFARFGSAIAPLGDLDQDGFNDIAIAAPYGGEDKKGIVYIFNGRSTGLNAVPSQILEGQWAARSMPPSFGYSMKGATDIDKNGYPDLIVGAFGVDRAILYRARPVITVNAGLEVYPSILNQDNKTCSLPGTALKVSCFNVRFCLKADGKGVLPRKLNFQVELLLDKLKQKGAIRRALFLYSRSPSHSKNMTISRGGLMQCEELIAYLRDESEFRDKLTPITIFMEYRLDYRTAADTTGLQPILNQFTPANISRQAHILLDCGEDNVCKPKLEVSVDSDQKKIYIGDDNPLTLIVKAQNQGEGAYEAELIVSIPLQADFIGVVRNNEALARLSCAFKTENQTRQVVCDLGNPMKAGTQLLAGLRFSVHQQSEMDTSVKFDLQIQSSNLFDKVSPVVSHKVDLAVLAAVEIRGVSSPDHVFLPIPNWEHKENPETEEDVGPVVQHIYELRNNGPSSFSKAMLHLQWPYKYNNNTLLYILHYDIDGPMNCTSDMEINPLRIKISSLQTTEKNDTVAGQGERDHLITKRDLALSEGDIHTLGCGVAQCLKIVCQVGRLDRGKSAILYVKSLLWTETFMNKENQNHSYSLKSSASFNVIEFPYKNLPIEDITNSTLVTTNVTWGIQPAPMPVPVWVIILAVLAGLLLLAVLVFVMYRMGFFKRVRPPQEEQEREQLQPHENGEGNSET
T2 chain 2: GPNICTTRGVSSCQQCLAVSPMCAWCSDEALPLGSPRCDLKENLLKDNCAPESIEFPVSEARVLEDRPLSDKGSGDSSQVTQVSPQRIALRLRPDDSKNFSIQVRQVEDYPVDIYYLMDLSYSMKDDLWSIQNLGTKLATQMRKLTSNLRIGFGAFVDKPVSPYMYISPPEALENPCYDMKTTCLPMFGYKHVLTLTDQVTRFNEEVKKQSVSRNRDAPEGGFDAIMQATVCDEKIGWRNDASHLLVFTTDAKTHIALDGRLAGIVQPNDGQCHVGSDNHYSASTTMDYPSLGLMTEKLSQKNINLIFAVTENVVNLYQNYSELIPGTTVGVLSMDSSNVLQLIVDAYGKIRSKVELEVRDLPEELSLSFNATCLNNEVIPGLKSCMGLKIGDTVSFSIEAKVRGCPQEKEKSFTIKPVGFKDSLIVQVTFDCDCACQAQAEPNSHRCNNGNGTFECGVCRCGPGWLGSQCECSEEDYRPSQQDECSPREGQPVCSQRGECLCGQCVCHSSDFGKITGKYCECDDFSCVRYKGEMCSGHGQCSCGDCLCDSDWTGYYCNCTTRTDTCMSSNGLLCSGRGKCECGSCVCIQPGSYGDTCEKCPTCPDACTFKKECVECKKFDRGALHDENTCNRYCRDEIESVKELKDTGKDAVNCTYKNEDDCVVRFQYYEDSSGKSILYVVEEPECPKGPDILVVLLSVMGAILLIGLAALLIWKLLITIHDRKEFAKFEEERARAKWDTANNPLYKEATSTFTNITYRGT

Molecule: Z-Asp(Ome)-Glu(Ome)-Val-Asp(OMe)-FMK
effect of caspase-3 inhibitor on LS422 fluorescence activation [2]: inability to activate the LS422 fluorescence

Molecule: Ac-DEVD-pNA
kcat [3]: 2.4 s⁻¹ | Km [3]: 11 µM

Molecule: cypate-octreotate
decrease in the binding affinity ([1]; non-RGD peptide control): > 100 fold

Molecule: Ac-DEVD-AMC
kcat [3]: 0.75 s⁻¹ | Km [3]: 9.7 µM

Molecule: cyclo(RGD[dF]K) (also: cypate label, position not given here) [LS167 (Cypate-c(RGDfK))]
Ki [5]: 1.62 nM

Now from value to molecule:

Ki ([1]; read-out: Ki (nM ± s.d.), corrected Ki, modified Cheng-Prusoff equation, 125I-c(RGDyK) tracer): 1.62 ± 0.491 nM
Molecule: Cypate-c(RGDfK) [LS167]

Kd [4]: 0.4 nM
Molecule: cyclo(RGD[dY]K) (also: 125I label, site not given here) [125I-c(RGDyK)]
